Test results taken from ChEMBL document CHEMBL1201862, “PubChem BioAssay data set” (2004).
The source made the active and inactive calls.

Experiments:
[1] = molecular target: T1, Beta-adrenergic receptor kinase 1 (Homo sapiens, UniProt P25098); assay: GRK2 inhibitors displacing RNA aptamer, dose response, biochemical, flow cytometry beads, FAM-aptamer, powder set 1 (AID 588720)
T1 sequence (P25098 whole entry): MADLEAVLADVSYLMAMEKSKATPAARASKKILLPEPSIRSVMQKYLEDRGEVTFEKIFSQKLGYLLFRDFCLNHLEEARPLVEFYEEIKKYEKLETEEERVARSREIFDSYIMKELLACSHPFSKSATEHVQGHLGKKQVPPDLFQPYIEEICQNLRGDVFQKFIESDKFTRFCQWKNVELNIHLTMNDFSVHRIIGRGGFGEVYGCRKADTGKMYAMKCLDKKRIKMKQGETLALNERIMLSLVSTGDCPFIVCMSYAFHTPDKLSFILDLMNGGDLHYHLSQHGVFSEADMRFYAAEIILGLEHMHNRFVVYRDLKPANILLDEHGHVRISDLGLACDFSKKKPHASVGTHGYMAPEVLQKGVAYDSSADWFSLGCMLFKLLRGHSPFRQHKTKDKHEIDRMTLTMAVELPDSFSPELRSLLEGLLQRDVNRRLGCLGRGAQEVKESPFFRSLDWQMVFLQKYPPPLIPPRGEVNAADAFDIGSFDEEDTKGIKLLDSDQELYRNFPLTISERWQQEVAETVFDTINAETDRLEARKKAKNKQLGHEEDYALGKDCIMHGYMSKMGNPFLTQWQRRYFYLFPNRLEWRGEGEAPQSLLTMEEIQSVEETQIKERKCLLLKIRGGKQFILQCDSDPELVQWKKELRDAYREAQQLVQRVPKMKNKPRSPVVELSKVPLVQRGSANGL

[2] = molecular target: Heat shock protein HSP 90-alpha (Homo sapiens, UniProt P07900); type: functional, organism-based
[3] = inhibitors of HIV Env-driven cell fusion, dose response, cherry-pick (AID 652057); type: functional, cell-based
[4] = off-target signal loss in HeLa-CEM21 co-culture – HeLa F-luc CTL cells, cherry-picked, counter-screen for HIV-1 Env fusion inhibitor project, dose response (AID 652040); type: functional, cell-based;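 also: potency for signal decrease marking cytotoxic or nonspecific inhibition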
[5] = test system: Streptococcus sp. 'group A'; assay: growth inhibition of control SK(-) GAS strain, dose response, counter-screen for streptokinase expression inhibitor project, luminescence, kanamycin, BacTiterGlo, confirmation (AID 1900); type: functional, organism-based
[6] = inhibitors of clade B AD8 Env fusion, dose response, cell-based, cherry-pick (AID 652062); type: functional;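 also: luciferase signal from cell-cell fusion driven by HIV-1 clade B AD8 Env; potency is for inhibitors of fusion seen as a drop in luminescence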
Streptococcus [7] = assay: Group A Streptococcus viability loss, dose response, counter-screen for streptokinase expression inhibitor project, luminescence, BacTiterGlo (AID 1915); type: functional, organism-based;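 also: potency for reduction of bacterial viability or growth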
[8] = ZM109 Env clade C HIV-1 fusion inhibitors, dose response, HeLa effector, CEM target cells, luciferase, cherry-pick (AID 652058); type: functional, cell-based
[9] = molecular target: T2, Heat shock factor protein 1 (Mus musculus, UniProt P38532); assay: HSF1 potentiators in luciferase reporter cells, confirmation, cell-based, NIH3T3, luminescence, dose retest (AID 435004); type: functional;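 also: stress induced by proteasome inhibitor MG132 added 30 min after compound; luciferase reporter driven by HSF1 response element in NIH3T3 cells; actives raise luminescence as potentiators of the MG132 stress response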
T2 sequence (P38532 whole entry): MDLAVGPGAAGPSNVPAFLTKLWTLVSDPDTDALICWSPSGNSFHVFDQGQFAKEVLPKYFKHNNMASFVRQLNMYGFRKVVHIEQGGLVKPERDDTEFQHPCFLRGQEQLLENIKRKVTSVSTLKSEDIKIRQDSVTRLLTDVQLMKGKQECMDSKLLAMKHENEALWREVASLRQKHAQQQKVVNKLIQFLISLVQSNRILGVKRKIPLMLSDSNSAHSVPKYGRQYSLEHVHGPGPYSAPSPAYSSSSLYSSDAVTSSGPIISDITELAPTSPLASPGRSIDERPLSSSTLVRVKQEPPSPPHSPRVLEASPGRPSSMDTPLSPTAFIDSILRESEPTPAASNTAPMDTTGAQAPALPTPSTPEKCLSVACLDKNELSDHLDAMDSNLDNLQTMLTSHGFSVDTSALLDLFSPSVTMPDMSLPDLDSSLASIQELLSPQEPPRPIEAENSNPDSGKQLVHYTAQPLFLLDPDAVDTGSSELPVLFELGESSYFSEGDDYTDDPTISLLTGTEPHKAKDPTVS

Streptokinase A = molecular target: T3, Streptokinase A (Streptococcus pyogenes serotype M1, UniProt P10520); assay: S. pyogenes streptokinase expression inhibitors, potency, dose response, plasminogen activation absorbance, OD405 (AID 1914); type: functional, Streptococcus pyogenes M1 GAS;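 also: secreted streptokinase activity via plasminogen activation per viability signal from cell pellet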
T3 sequence (P10520 whole entry): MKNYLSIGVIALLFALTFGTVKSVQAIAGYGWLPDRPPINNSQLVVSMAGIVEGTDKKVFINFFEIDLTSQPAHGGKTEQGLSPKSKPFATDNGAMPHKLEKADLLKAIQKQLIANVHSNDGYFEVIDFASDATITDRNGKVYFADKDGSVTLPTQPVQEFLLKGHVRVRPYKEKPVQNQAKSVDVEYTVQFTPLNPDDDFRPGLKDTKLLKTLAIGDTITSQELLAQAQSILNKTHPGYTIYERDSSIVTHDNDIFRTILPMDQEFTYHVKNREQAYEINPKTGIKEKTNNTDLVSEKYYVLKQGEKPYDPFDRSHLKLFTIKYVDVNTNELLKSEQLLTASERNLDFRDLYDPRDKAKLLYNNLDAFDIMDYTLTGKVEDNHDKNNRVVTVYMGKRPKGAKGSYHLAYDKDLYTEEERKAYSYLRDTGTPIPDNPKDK

HEK293 [10] = assay: cells; conditions: Homo sapiens
Streptococcus [11] = assay: Luminescence Microorganism-Based Dose Response Follow up to Identify Compounds Cytotoxic to Streptococcus. [Related pubchem assays: 1677 (Project Summary), 1915, 1914, 1902 (Retest at Dose), 1900 (Counter Screen), 1662 (Primary HTS)]; type: functional, organism-based
[12] = Luminescence Cell-Based Dose Retest to Confirm Inhibitors of Cancer Stem Cells. [Related pubchem assays (depositor defined):AID2717, AID2721]; type: functional; conditions: Homo sapiens
HEK293 [13] = assay: cells; conditions: Homo sapiens; remark: listed apart in the source
[14] = CEM21 lymphoblast cell cytotoxicity, dose response, cytotoxicity control for viral fusion inhibitor project, CellTiter-Glo luminescence, cherry-picked (AID 652042); type: functional, cell-based;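 also: potency for signal decrease meaning cytotoxicity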
HeLa = assay: HeLa cell cytotoxicity, dose response, cytotoxicity control for MITF activator project, CellTiter-Glo luminescence, cherry-pick samples (AID 540259); type: functional, cell-based; conditions: Homo sapiens
HEK293 [15] = assay: cells; type: functional, cell-based; conditions: Homo sapiens
[16] = molecular target: T4, Nuclear receptor subfamily 0 group B member 1 (Homo sapiens, UniProt P51843); assay: Luminescence-based cell-based high throughput dose response assay for inhibitors of the orphan nuclear receptor subfamily 0, group B, member 1 (DAX1; NR0B1). [Related pubchem assays (depositor defined):AID504766, AID504790]; type: functional
T4 sequence (P51843 whole entry): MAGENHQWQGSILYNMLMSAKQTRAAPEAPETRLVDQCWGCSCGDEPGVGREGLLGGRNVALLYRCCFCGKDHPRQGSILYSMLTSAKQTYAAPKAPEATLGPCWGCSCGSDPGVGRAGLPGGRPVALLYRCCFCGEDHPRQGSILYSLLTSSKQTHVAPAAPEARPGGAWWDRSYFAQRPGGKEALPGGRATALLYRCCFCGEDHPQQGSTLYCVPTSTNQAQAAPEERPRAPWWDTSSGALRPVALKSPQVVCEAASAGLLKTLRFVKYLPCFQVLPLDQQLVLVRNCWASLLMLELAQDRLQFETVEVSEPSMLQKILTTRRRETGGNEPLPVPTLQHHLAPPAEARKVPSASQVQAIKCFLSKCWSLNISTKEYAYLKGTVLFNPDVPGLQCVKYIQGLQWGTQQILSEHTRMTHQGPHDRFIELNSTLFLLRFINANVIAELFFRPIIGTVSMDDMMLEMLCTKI

CAAX prenyl protease 2 [17] = molecular target: CAAX prenyl protease 2 (Homo sapiens, UniProt Q9Y256); assay: human Rce1 protease inhibitors, dose response, biochemical, yeast membranes, quenched-peptide fluorescence, cherry-pick (AID 588849)
CAAX prenyl protease 2 (Homo sapiens, UniProt Q9Y256), sequence (Q9Y256 whole entry): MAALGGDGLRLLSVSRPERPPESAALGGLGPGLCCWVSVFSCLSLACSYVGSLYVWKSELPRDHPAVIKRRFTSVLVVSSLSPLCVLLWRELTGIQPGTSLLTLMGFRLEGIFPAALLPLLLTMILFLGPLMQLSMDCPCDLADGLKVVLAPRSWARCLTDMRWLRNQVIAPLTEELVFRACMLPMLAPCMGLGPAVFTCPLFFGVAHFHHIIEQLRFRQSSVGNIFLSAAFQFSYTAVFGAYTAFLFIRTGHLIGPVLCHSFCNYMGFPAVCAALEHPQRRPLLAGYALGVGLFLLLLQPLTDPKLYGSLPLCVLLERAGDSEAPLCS

Trypsin = Trypsin (Sus scrofa, UniProt P00761); assay: porcine trypsin inhibitors, dose response, selectivity assay for Rce1 protease inhibitor project, biochemical, quenched peptide fluorescence, cherry-pick (AID 488789)
Trypsin, sequence (P00761 whole entry): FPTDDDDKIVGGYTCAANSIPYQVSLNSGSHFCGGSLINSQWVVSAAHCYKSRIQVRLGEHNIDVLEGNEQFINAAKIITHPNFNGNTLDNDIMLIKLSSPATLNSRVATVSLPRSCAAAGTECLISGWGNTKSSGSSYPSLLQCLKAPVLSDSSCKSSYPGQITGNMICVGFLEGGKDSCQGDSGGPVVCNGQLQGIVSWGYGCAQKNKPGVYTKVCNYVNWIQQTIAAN

Large T antigen = Large T antigen (Simian virus 40, UniProt P03070); type: functional, Betapolyomavirus macacae;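 also: Confirmatory-stage PubChem screen for compounds that inhibit SV40 T antigen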
Large T antigen, sequence (P03070 whole entry): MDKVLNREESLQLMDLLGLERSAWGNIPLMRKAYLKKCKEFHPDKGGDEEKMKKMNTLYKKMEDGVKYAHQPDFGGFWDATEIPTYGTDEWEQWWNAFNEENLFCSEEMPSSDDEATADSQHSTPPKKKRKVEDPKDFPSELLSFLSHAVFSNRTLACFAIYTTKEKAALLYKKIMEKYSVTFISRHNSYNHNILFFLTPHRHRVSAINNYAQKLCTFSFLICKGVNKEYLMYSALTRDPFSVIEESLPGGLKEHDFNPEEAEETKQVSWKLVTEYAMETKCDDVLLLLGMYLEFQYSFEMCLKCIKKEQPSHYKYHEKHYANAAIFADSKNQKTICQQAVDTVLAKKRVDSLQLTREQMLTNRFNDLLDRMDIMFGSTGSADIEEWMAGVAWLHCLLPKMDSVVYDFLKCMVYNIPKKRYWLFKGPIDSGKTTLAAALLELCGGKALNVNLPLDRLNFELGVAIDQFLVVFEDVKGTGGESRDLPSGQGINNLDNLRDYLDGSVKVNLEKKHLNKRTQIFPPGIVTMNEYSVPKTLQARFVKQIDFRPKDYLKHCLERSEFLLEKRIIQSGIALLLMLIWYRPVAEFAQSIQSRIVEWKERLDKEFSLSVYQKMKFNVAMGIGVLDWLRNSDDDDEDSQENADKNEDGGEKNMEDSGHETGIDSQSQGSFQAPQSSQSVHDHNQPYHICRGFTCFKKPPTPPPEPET

CAAX prenyl protease 2 [18] = molecular target: T5, CAAX prenyl protease 2 (Saccharomyces cerevisiae S288c, UniProt Q03530); type: biochemical
T5 sequence (Q03530 whole entry): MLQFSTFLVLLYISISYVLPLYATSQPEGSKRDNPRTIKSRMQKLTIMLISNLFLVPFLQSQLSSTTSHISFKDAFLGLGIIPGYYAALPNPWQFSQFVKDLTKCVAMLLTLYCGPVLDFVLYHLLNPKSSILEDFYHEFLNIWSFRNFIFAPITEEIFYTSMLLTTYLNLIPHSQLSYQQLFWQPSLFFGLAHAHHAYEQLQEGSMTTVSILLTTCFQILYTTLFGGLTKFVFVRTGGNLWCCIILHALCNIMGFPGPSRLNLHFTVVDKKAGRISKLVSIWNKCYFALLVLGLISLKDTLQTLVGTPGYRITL

## COC(=O)c1ccc(NC(=O)CCS(=O)(=O)c2ccc(Br)cc2)cc1
[1]
  EC50: 6.56 µM (active)

## CC(=O)N(C)c1ccc(OCC(O)Cn2c3ccc(Cl)cc3c3cc(Cl)ccc32)cc1 (centres undefined)
[2]
  AC50: 5.12 µM (active)
[3]
  AC50: 2.19 µM (active)
[4]
  AC50: 2.47 µM (active)
[5]
  EC50: 2.7 µM (active)
[6]
  AC50: 4.49 µM (active)
Streptococcus [7]
  EC50: 80.6 µM (active)
[8]
  AC50: 2.38 µM (active)
[9]
  EC50: > 260 µM (inactive)
Streptokinase A
  EC50: 2.66 µM (active)
HEK293 [10]
  EC50: > 59.6 µM (inactive)
Streptococcus [11]
  EC50: 9.63 µM (active)
[12]
  AC50: 1.59 µM (active)
HEK293 [13]
  EC50: > 59.6 µM (inactive)
[14]
  AC50: 23.2 µM (active)

## CCCc1cc(-c2ccc3c(c2)COc2c4ccccc4nn2-3)on1
HeLa
  AC50: 40 µM (active)

## O=C(CCCC(=O)N1CCN(c2ccccc2F)CC1)c1ccccc1
HEK293 [15]
  IC50: > 67.5 µM (inactive)
[16]
  IC50: > 67.5 µM (inactive)

## CC(=O)Nc1cc(C)c2nc(NC(C)=O)sc2c1
HEK293 [15]
  IC50: > 67.6 µM (inactive)
[16]
  IC50: > 67.6 µM (inactive)

## CN1CC(C(=O)O)Cc2c1ccc1ccccc21 (centres undefined)
CAAX prenyl protease 2 [17]
  AC50: 7.4 µM (active)
Trypsin
  AC50: 5.17 µM (active)
Large T antigen
  IC50: 19.4 µM (active)
CAAX prenyl protease 2 [18]
  AC50: 9.61 µM (active)
